Test results taken from patent US20080153701A1, “Fungicidal Mixtures” (BASF Aktiengesellschaft, priority 2004, published 2008).
Where two headings read alike, the source gives them in different places.

How the values were obtained:
[1] = system: Puccinia recondite; test: Curative activity against brown rust of wheat (greenhouse); type: in vivo; details: wheat seedlings, sprayed 1 day after inoculation, rated after 7 days
Experimental: (§1) The active compounds were separately or jointly prepared as a stock solution comprising 25 mg of active compound which was made up to 10 ml using a mixture of acetone and/or DMSO and the emulsifier Uniperol® EL (wetting agent having emulsifying and dispersing action based on ethoxylated alkylphenols) in a volume ratio of solvent/emulsifier of 99 to 1. The mixture was then made up with water to 100 ml. This stock solution was diluted with the solvent/emulsifier/water mixture described to the concentration of active compounds stated below.
(§2) The visually determined percentages of infected leaf areas were converted into efficacies in % of the untreated control:
(§3) The efficacy (E) is calculated as follows using Abbot's formula: […]
(§4) α corresponds to the fungal infection of the treated plants in % and β corresponds to the fungal infection of the untreated (control) plants in %
(§5) An efficacy of 0 means that the infection level of the treated plants corresponds to that of the untreated control plants; an efficacy of 100 means that the treated plants were not infected.
(§6) The expected efficacies of combinations of active compounds were determined using Colby's formula (Colby, S. R. “Calculating synergistic and antagonistic responses of herbicide combinations”, Weeds, 15, 20-22, 1967) and compared with the observed efficacies.
(§7) E=x+y−x·y/100 • E expected efficacy, expressed in % of the untreated control, when using the mixture of the active compounds A and B at the concentrations a and b • x efficacy, expressed in % of the untreated control, when using the active compound A at the concentration a • y efficacy, expressed in % of the untreated control, when using the active compound B at the concentration b
Leaves of wheat seedlings of the cultivar “Kanzler” cultivated in pots were inoculated with a spore suspension of brown rust (Puccinia recondite). The pots were then placed in a chamber with high atmospheric humidity (90 to 95%) and at 20 to 22° C. for 24 hours. During this time, the spores germinated and the germ tubes penetrated into leaf tissue. The next day, the infected plants were sprayed to runoff point with the solution of active compound described above having the active compound concentration stated below. After the spray coating had dried on, the test plants were cultivated in a greenhouse at temperatures between 20 and 22° C. and at 65 to 70% relative atmospheric humidity for 7 days. The extent of the rust fungus development on the leaves was then determined.

[2] = system: Phytophthora infestans; type: cell-based; details: microtiter plate, 405 nm, day 7
[3] = system: Botrytis cinerea; test: Activity against the gray mold pathogen Botrytis cinerea in the microtiter test; type: cell-based; details: microtiter plate, day 7
[4] = system: Botrytis cinerea; test: Activity against Botrytis cinerea on bell peppers (greenhouse, protective spray); type: in vivo; details: bell pepper seedlings, sprayed 1 day before inoculation, rated after 5 days
Experimental: as §1, §2, §3, §4, §5, §6, §7
Bell pepper seedlings of the cultivar “Neusiedler Ideal Elite” were, after 2-3 leaves were well developed, sprayed to runoff point with an aqueous suspension in the active compound concentration stated below. […] After 5 days, the extent of the fungal infection on the leaves could be determined visually in %.

`CO/N=C(/C(=O)OC)c1ccccc1COc1ccccc1C` [kresoxim-methyl, methyl(E)-methoxyimino[α-(o-tolyloxy)-o-tolyl]acetate] was tested. Which Observed activity ([1]; 4 ppm) did it give?
The Observed activity was 0%.

What about the Observed activity ([1]; 63 ppm) of the same compound?
Its Observed activity is 18%.

And the Observed activity ([2]; 1 ppm)?
The Observed activity was 36%.

With “manganese-ethylenebis(dithiocarbamate) zinc complex [mancozeb]” as the compound, how does the Observed activity ([3]; 4 ppm, 405 nm) read?
The Observed activity was 9%.

Which Observed activity ([1]; 16 ppm) does the source give for `COCC(=O)N(c1c(C)cccc1C)C(C)C(=O)OC` (racemic) [metalaxyl, methyl N-(methoxyacetyl)-N-(2,6-xylyl)-DL-alaninate] here?
Its Observed activity is 0%.

What does the source list for `Cc1ccc(-c2c(Cl)nc(C#N)n2S(=O)(=O)N(C)C)cc1` [cyazofamid, 4-chloro-2-cyano-N,N-dimethyl-5-(4-methylphenyl)-1H-imidazole-1-sulfonamide]?
Observed activity ([3]; 1 ppm, 405 nm): 0%; Observed activity ([3]; concentration not printed (second line for cyazofamid)): 0%

For `COc1ccc(C(=CC(=O)N2CCOCC2)c2ccc(Cl)cc2)cc1OC` [dimethomorph, 3-(4-chlorophenyl)-3-(3,4-dimethoxyphenyl)-1-morpholin-4-ylpropenone], which Observed activity ([1]; 2 ppm) is on record?
The Observed activity was 0%.

And the Observed activity ([1]; 8 ppm)?
Its Observed activity is 0%.

How did the Observed activity ([2]; 1 ppm) turn out when `O=[N+]([O-])c1cc(C(F)(F)F)c(Cl)c([N+](=O)[O-])c1Nc1ncc(C(F)(F)F)cc1Cl` [fluazinam, 3-chloro-N-[3-chloro-2,6-dinitro-4-(trifluoromethyl)phenyl]-5-(trifluoromethyl)-2-pyridinamine] was run?
Its Observed activity is 0%.

`COC(=O)NCc1cc(/C(C)=N/OCc2cccc(C)c2)ccc1Cl` [I-B] was tested. Which Observed activity ([4]; 16 ppm) did it give?
Its Observed activity is 10%.

What about the Observed activity ([4]; 63 ppm) of the same compound?
The Observed activity was 20%.

And the Observed activity ([1]; 16 ppm)?
The Observed activity was 6%.

What about the Observed activity ([2]; 0.25 ppm) of the same compound?
Its Observed activity is 4%.

What about the Observed activity ([2]; 4 ppm) of the same compound?
The Observed activity was 5%.

What about the Observed activity ([2]; 8 ppm) of the same compound?
The Observed activity was 27%.

What about the Observed activity ([2]; 32 ppm) of the same compound?
The Observed activity was 35%.

And the Observed activity ([2]; 125 ppm)?
The Observed activity was 57%.

What about the Observed activity ([3]; 0.25 ppm, 405 nm) of the same compound?
Its Observed activity is 2%.

And the Observed activity ([3]; 1 ppm, 405 nm)?
The Observed activity was 40%.

What about the Observed activity ([3]; 4 ppm, 405 nm) of the same compound?
The Observed activity was 67%.

How did the Observed activity ([4]; 63 ppm) turn out when `N#Cc1sc2c(=O)c3ccccc3c(=O)c=2sc1C#N` [dithianon, 5,10-dioxo-5,10-dihydronaphtho[2,3-b][1,4]dithiin-2,3-dicarbonitrile] was run?
The Observed activity was 10%.

How did the Observed activity ([2]; 8 ppm) turn out when `OC(Cc1ccccc1Cl)(Cn1nc[nH]c1=S)C1(Cl)CC1` (centres unmarked) [prothioconazole, 2-[2-(1-chlorocyclopropyl)-3-(2-chlorophenyl)-2-hydroxypropyl]-2,4-dihydro[1,2,4]triazol-3-thione] was run?
Its Observed activity is 0%.

And the Observed activity ([2]; 32 ppm)?
Its Observed activity is 46%.

How did the Observed activity ([3]; 0.25 ppm, 405 nm) turn out when `COC(=O)N(OC)c1ccccc1COc1ccn(-c2ccc(Cl)cc2)n1` [pyraclostrobin, methyl N-{2-[1-(4-chlorophenyl)-1H-pyrazol-3-yloxymethyl]phenyl}(N-methoxy)carbamate] was run?
Its Observed activity is 20%.

What does the source list for `Fc1ccc([C@]2(Cn3cncn3)O[C@H]2c2ccccc2Cl)cc1` (racemic) [epoxiconazole, (2RS, 3SR)-1-[3-(2-chlorophenyl)-2,3-epoxy-2-(4-fluorophenyl)propyl]-1H-1,2,4-triazole]?
Observed activity ([2]; 32 ppm): 9%; Observed activity ([2]; 125 ppm): 31%; Observed activity ([3]; 1 ppm, 405 nm): 2%

How did the Observed activity ([1]; 16 ppm) turn out when `O=C(Nc1ccccc1-c1ccc(Cl)cc1)c1cccnc1Cl` [boscalid, 2-chloro-N-(4′-chlorbiphenyl-2-yl)nicotinamide] was run?
The Observed activity was 0%.
